# Measured values from ChEMBL document CHEMBL1154815, “3D QSAR studies on ketoamides of human cathepsin K inhibitors based on two different alignment methods” (Eur J Med Chem, 2010).
# Molecular target: T1, Cathepsin K (Homo sapiens, UniProt P43235)
# T1 sequence (P43235 whole entry): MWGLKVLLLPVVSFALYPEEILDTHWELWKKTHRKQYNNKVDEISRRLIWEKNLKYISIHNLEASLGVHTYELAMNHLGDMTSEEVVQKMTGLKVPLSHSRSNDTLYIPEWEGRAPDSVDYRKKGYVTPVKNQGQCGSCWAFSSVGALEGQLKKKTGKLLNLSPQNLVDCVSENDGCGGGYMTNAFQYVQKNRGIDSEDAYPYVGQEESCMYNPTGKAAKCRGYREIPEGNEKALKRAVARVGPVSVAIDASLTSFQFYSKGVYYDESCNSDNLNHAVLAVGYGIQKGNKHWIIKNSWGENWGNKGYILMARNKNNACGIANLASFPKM
# Experiment: Inhibition of human cathepsin K
Structure (SMILES),IC50,pIC50
CCCC[C@H](NC(=O)O[C@@H](Cc1nnc(-c2ccccc2)o1)C(C)C)C(=O)C(=O)N[C@H](C)c1ccccc1,0.832 nM,–
CCCC[C@H](NC(=O)O[C@@H]1CN(C(=O)CCCc2ccccc2)CC1(C)C)C(=O)C(=O)N[C@H](C)c1ccccc1,26.9 nM,–
CCCC[C@H](NC(=O)O[C@@H]1CN(Cc2ccccc2)CC1(C)C)C(=O)C(=O)N[C@H](C)c1ccccc1,20.9 nM,–
CCCC[C@H](NC(=O)O[C@@H]1CN(S(=O)(=O)Cc2ccccc2)CC1(C)C)C(=O)C(=O)N[C@H](C)c1ccccc1,17 nM,–
CCCC[C@H](NC(=O)O[C@@H]1CN(C(=O)c2ccc(C(F)(F)F)cc2)CC1(C)C)C(=O)C(=O)Nc1cc[nH]n1,0.417 nM,–
CCCC[C@H](NC(=O)O[C@@H]1CN(C(=O)Oc2ccc3ccccc3c2)CC1(C)C)C(=O)C(=O)N[C@H](C)c1ccccc1,57.5 nM,–
CCCC[C@H](NC(=O)O[C@@H]1CN(S(=O)(=O)c2ccccc2)CC1(C)C)C(=O)C(=O)N[C@H](C)c1ccccc1,8.32 nM,–
CCCC[C@H](NC(=O)O[C@@H]1CN(C(=O)Oc2ccccc2)CC1(C)C)C(=O)C(=O)N[C@H](C)c1ccccc1,28.8 nM,–
CCCC[C@H](NC(=O)O[C@@H]1CN(C(=O)OCc2ccc(-c3ccccc3)cc2)CC1(C)C)C(=O)C(=O)N[C@H](C)c1ccccc1,2.09 nM,–
CCCC[C@H](NC(=O)O[C@@H]1CN(C(=O)NCCc2ccccc2)CC1(C)C)C(=O)C(=O)N[C@H](C)c1ccccc1,6.61 nM,–
CCCC[C@H](NC(=O)O[C@H](Cn1cnc(-c2ccc(C(F)(F)F)cc2)c1)C(C)(C)C)C(=O)C(=O)Nc1ccn[nH]1,–,10.6
CCCC[C@H](NC(=O)O[C@H](Cc1nnc(-c2ccc(F)cc2)o1)C(C)(C)C)C(=O)C(=O)N[C@H]1CCCNC1=O,0.646 nM,–
CCCC[C@H](NC(=O)O[C@@H]1CN(C(=O)Oc2ccc(-c3ccccc3)cc2)CC1(C)C)C(=O)C(=O)N[C@H](C)c1ccccc1,5.01 nM,–
CCCC[C@H](NC(=O)O[C@@H]1CN(C(=O)OCCc2ccccc2)CC1(C)C)C(=O)C(=O)N[C@H](C)c1ccccc1,32.4 nM,–
CCCC[C@H](NC(=O)O[C@H](Cn1cc(-c2ccc(C(F)(F)F)cc2)cn1)C(C)(C)C)C(=O)C(=O)Nc1ccn[nH]1,0.0257 nM,–

# Results, then the compound that gave them:
IC50,pIC50,Structure (SMILES)
64.6 nM,–,CCCC[C@H](NC(=O)O[C@@H]1CN(C(=O)c2ccccc2)CC1(C)C)C(=O)C(=O)N[C@H](C)c1ccccc1
4.27 nM,–,CCCC[C@H](NC(=O)O[C@@H]1CN(C(=O)Nc2ccccc2)CC1(C)C)C(=O)C(=O)N[C@H](C)c1ccccc1
14.1 nM,–,CCCC[C@H](NC(=O)O[C@@H]1CN(C(=O)c2cccnc2)CC1(C)C)C(=O)C(=O)N[C@H](C)c1ccccc1
2.82 nM,–,CCCC[C@H](NC(=O)O[C@@H]1CN(C(=O)c2cc3ccccc3s2)CC1(C)C)C(=O)C(=O)N[C@H](C)c1ccccc1
15.1 nM,–,CCCC[C@H](NC(=O)O[C@@H]1CN(C(=O)c2c(C)noc2C)CC1(C)C)C(=O)C(=O)N[C@H](C)c1ccccc1
8.91 nM,–,CCCC[C@H](NC(=O)O[C@@H]1CN(C(=O)c2ccno2)CC1(C)C)C(=O)C(=O)N[C@H](C)c1ccccc1
1.58 nM,–,CCCC[C@H](NC(=O)O[C@@H]1CN(C(=O)c2ccc3ccccc3c2)CC1(C)C)C(=O)C(=O)N[C@H](C)c1ccccc1
3.8 nM,–,CCCC[C@H](NC(=O)O[C@@H]1CN(C(=O)NCc2ccccc2)CC1(C)C)C(=O)C(=O)N[C@H](C)c1ccccc1
1.7 nM,–,CCCC[C@H](NC(=O)O[C@@H]1CN(C(=O)c2ccc3cc[nH]c3c2)CC1(C)C)C(=O)C(=O)N[C@H](C)c1ccccc1
6.92 nM,–,CCCC[C@H](NC(=O)O[C@@H]1CN(C(=O)c2ccc(-c3ccccc3)cc2)CC1(C)C)C(=O)C(=O)N[C@H](C)c1ccccc1
3.02 nM,–,CCCC[C@H](NC(=O)O[C@@H]1CN(C(=O)Cc2ccccc2)CC1(C)C)C(=O)C(=O)N[C@H](C)c1ccccc1
